Test results as given in US10030016B2 (Sunesis Pharmaceuticals, Inc., priority 2009, dated 2018).
pEC50, pIC50: −log10 of the molar value. Read-outs that look alike come from different tables or passages of the source.

Columns and labels:
PDK1 = PDK1 (Homo sapiens (Human), UniProt O15530); assay: PDK1 kinase assay (coupled PDK1/AKT/FAM-crosstide assay, IMAP fluorescence polarization); type: biochemical
Method in brief: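 Inhibition is derived by 4-parameter fitting of ΔmP from an IMAP fluorescence polarization read of FAM-crosstide (100 nM) phosphorylation. The cascade ran 30 min at 25 °C with 40 μM ATP, using insect-cell GST-PDK1 51-359 (0.75 nM) driving 10 nM unphosphorylated AKT2 140-467-PIFtide fusion.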

[1] = test system: phospho-akt (Thr308) in PC-3 cells; assay: Inhibition of phospho-akt (Thr308) in PC-3 cells, MSD phospho-akt 308 ELISA kit; type: cell-based; conditions: Homo sapiens, 2 hours, no serum, read-out: EC50
Method in brief: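 PC-3 cells were seeded overnight in growth medium with 10% FBS, then exposed to compound serially diluted threefold in serum-free medium for 2 hours. Lysates were captured overnight at 4 degrees on MSD plates and phospho-Akt Thr308 was detected electrochemiluminescently, against DMSO high and 5 μM wortmannin low controls.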

[2] = inhibition of P308 Akt in PC-3 cells using MSD

Sequence of PDK1 (O15530 51-359): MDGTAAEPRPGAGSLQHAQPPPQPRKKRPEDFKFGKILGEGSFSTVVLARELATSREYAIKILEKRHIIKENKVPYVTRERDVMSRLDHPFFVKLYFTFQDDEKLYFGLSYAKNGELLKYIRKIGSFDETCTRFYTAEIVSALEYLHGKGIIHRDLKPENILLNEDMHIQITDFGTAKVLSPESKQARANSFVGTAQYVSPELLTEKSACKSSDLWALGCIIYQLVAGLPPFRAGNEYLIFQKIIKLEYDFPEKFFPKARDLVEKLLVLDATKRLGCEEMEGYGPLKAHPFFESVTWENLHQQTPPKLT

SMILES | pIC50 (PDK1; inhibition of phospo-PDK1 in vitro) | pEC50 ([1]; inhibition of P308 Akt in PC-3 cells, MSD) | pIC50 (PDK1; inhibition of PDK1 in vitro) | pEC50 [1, 2]
COc1ccnc(NCc2ccc(-c3ccc4ncnc(N)c4c3)s2)c1C(=O)NCc1ccc(F)c(F)c1 [Ex. 7.4, 2-({[5-(4-aminoquinazolin-6-yl)thiophen-2-yl]methyl}amino)-N-(3,4-difluorobenzyl)-4-methoxypyridine-3-carboxamide] | 6.00 to 7.00 | < 5.00 | – | –
C[C@H](NC(=O)c1cc(C#N)cnc1NCc1ccc(-c2cnc(N)c(C(=O)NCCO)n2)cc1)c1ccc(F)cc1 [Example 215, (S)-3-amino-6-(4-((5-cyano-3-(1-(4-fluorophenyl)ethylcarbamoyl)pyridin-2-ylamino)methyl)phenyl)-N-(2-hydroxyethyl) pyrazine-2-carboxamide] | – | – | > 7.00 | > 6.00
C[C@H](NC(=O)c1cc(C#N)cnc1NCc1ccc(-c2cnc(N)c(CCCCN3CCOCC3)n2)cc1)c1ccc(F)cc1 [Example 89, 2-{4-[5-Amino-6-(4-morpholin-4-yl-butyl)-pyrazin-2-yl]-benzyl-amino}-5-cyano-N-[(S)-1-(4-fluoro-phenyl)-ethyl]-nicotinamide] | – | – | > 7.00 | > 6.00
